Data taken from US20100196475A1, “CONTROLLED RELEASE TABLET FORMULATION CONTAINING MAGNESIUM ALUMINOMETASILICATE” (priority 2007, published 2010).
Converted amounts (≈) assume the structure as drawn. Structures can show the parent of a compound that is named as a salt.

Assay: physchem
Assay type: physicochemical
Conditions: for solubility: water
Protocol: Four different active agents with different solubilities were selected for the preparation of multi-layer tablets, as follows:
9410 (Prednisone)—solubility of 0.1 mg/ml in water.

SMILES | solubility described in words | solubility [mg/mL]
CC(C)(Cc1c[nH]c2ccccc12)NCC(O)COc1ccccc1C#N (stereo not drawn) [compound 8110, Bucindolol] | freely soluble | 257 (≈ 707 mM)
COc1ccc([C@@H]2Sc3ccccc3N(CCN(C)C)C(=O)[C@@H]2OC(C)=O)cc1 [compound 8403, Diltiazem HCl] | Very soluble | 1200
C[C@]12C=CC(=O)C=C1CC[C@@H]1[C@@H]2C(=O)C[C@@]2(C)[C@H]1CC[C@]2(O)C(=O)CO [compound 9410, Prednisone] | soluble | 0.1 (≈ 0.279 mM)
